Several values for one entry are separate records, joined by “and”; a condition that tells them apart may be missing. Identical values can stand only once.
System: 138582-337-R-J1-PDC spheroids with HUVEC/MSC, viability
Assay: Anticancer human tumor 138582-337-R-J1-PDC patient-derived Merkel cell tumor cell line growth inhibition [IpAb]
Conditions: for viability, T/C: stronger effect = lower value; active = viability on the fitted dose curve at most 10% of control; inactive = the rest
Outline: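 Multi-cell spheroids of 60% tumour cells, 25% HUVEC and 15% MSC in ultra-low-attachment U-bottom wells, treated with agents combined with ipatasertib or abemaciclib. Half-log ranges top out near clinical Cmax, or 10 microM when Cmax is unknown.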

[1] = curve of first compound, second compound 0.1 µM
[2] = curve of first compound, second compound 0.316 µM
[3] = curve of first compound, second compound 1 µM
[4] = curve of first compound, second compound 3.16 µM
[5] = curve of first compound, second compound 10 µM
[6] = second compound 0.1 µM, first compound 0.0316 µM
[7] = second compound 0.1 µM, first compound 0.1 µM
[8] = second compound 0.1 µM, first compound 0.316 µM
[9] = second compound 0.1 µM, first compound 1 µM
[10] = second compound 0.1 µM, first compound 3.16 µM
[11] = second compound 0.1 µM, first compound 10 µM
[12] = second compound 0.316 µM, first compound 0.0316 µM
[13] = second compound 0.316 µM, first compound 0.1 µM
[14] = second compound 0.316 µM, first compound 0.316 µM
[15] = second compound 0.316 µM, first compound 1 µM
[16] = second compound 0.316 µM, first compound 3.16 µM
[17] = second compound 0.316 µM, first compound 10 µM
[18] = second compound 1 µM, first compound 0.0316 µM
[19] = second compound 1 µM, first compound 0.1 µM
[20] = second compound 1 µM, first compound 0.316 µM
[21] = second compound 1 µM, first compound 1 µM
[22] = second compound 1 µM, first compound 3.16 µM
[23] = second compound 1 µM, first compound 10 µM
[24] = second compound 3.16 µM, first compound 0.0316 µM
[25] = second compound 3.16 µM, first compound 0.1 µM
[26] = second compound 3.16 µM, first compound 0.316 µM
[27] = second compound 3.16 µM, first compound 1 µM
[28] = second compound 10 µM, first compound 0.0316 µM
[29] = second compound 10 µM, first compound 0.1 µM
[30] = second compound 10 µM, first compound 0.316 µM
[31] = second compound 10 µM, first compound 1 µM
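Note: spheroids exposed to compounds for seven days.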
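Throughout, for viability, T/C: 100% = DMSO vehicle control viability.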

CC(=O)c1c(C)c2cnc(Nc3ccc(N4CCNCC4)cn3)nc2n(C2CCCC2)c1=O + CC(C)NCC(C(=O)N1CCN(c2ncnc3c2C(C)CC3O)CC1)c1ccc(Cl)cc1
inactive: viability, T/C (second compound 0.1 µM, first compound 0.000949 µM) 101% | viability, T/C (second compound 0.1 µM, first compound 0.003 µM) 98.6% | viability, T/C (second compound 0.1 µM, first compound 0.00949 µM) 92.3% | viability, T/C (second compound 0.1 µM, first compound 0.03 µM) 94.3% | viability, T/C (second compound 0.1 µM, first compound 0.0949 µM) 89.2% | viability, T/C (second compound 0.1 µM, first compound 0.3 µM) 103% | viability, T/C (second compound 0.316 µM, first compound 0.000949 µM) 76.2% | viability, T/C (second compound 0.316 µM, first compound 0.003 µM) 74.1% | viability, T/C (second compound 0.316 µM, first compound 0.00949 µM) 78.6% | viability, T/C (second compound 0.316 µM, first compound 0.03 µM) 80.7% | viability, T/C (second compound 0.316 µM, first compound 0.0949 µM) 66.5% | viability, T/C (second compound 0.316 µM, first compound 0.3 µM) 80.6% | viability, T/C (second compound 1 µM, first compound 0.000949 µM) 65.5% | viability, T/C (second compound 1 µM, first compound 0.003 µM) 62.5% | viability, T/C (second compound 1 µM, first compound 0.00949 µM) 59.6% | viability, T/C (second compound 1 µM, first compound 0.03 µM) 52.8% | viability, T/C (second compound 1 µM, first compound 0.0949 µM) 65% | viability, T/C (second compound 1 µM, first compound 0.3 µM) 64.3% | viability, T/C (second compound 3.16 µM, first compound 0.000949 µM) 51% | viability, T/C (second compound 3.16 µM, first compound 0.003 µM) 54.5% | viability, T/C (second compound 3.16 µM, first compound 0.00949 µM) 54% | viability, T/C (second compound 3.16 µM, first compound 0.03 µM) 47.1% | viability, T/C (second compound 3.16 µM, first compound 0.0949 µM) 61.6% | viability, T/C (second compound 3.16 µM, first compound 0.3 µM) 47% | viability, T/C (second compound 10 µM, first compound 0.000949 µM) 45.1% | viability, T/C (second compound 10 µM, first compound 0.003 µM) 44.3% | viability, T/C (second compound 10 µM, first compound 0.00949 µM) 45% | viability, T/C (second compound 10 µM, first compound 0.03 µM) 38.9% | viability, T/C (second compound 10 µM, first compound 0.0949 µM) 37.8% | viability, T/C (second compound 10 µM, first compound 0.3 µM) 44.1%
> 300 nM: IC50 [1] | IC50 [2] | IC50 [3] | IC50 [4]
< 0.949 nM: IC50 [5]

Cn1nccc1Nc1nccc(-c2ccn(C(CO)c3ccc(Cl)c(F)c3)c(=O)c2)n1 (centres undefined) + CC(C)NCC(C(=O)N1CCN(c2ncnc3c2C(C)CC3O)CC1)c1ccc(Cl)cc1
1700 nM: IC50 [3]
< 31.6 nM: IC50 [5]
inactive: viability, T/C [6] 104% | viability, T/C [7] 88.8% | viability, T/C [8] 91.8% | viability, T/C [9] 100% | viability, T/C [10] 108% | viability, T/C [11] 124% | viability, T/C [12] 82.8% | viability, T/C [13] 82.8% | viability, T/C [14] 77% | viability, T/C [15] 73.5% | viability, T/C [16] 75.8% | viability, T/C [17] 70% | viability, T/C [18] 68.2% | viability, T/C [19] 70.5% | viability, T/C [20] 67.6% | viability, T/C [21] 51.4% | viability, T/C [22] 44.8% | viability, T/C [23] 17.1% | viability, T/C [24] 47.4% | viability, T/C [25] 55.1% | viability, T/C [26] 48.8% | viability, T/C [27] 38.8% | viability, T/C (second compound 3.16 µM, first compound 3.16 µM) 19.9% | viability, T/C [28] 45.9% | viability, T/C [29] 47.5% | viability, T/C [30] 34.2% | viability, T/C [31] 22.8%
158 nM: IC50 [4]
active: viability, T/C (second compound 3.16 µM, first compound 10 µM) 4.47% | viability, T/C (second compound 10 µM, first compound 3.16 µM) 6.51% | viability, T/C (second compound 10 µM, first compound 10 µM) 1.06%
> 10000 nM: IC50 [1] | IC50 [2]

CC1(C)CCC(CN2CCN(c3ccc(C(=O)NS(=O)(=O)c4ccc(NCC5CCOCC5)c([N+](=O)[O-])c4)c(Oc4cnc5[nH]ccc5c4)c3)CC2)=C(c2ccc(Cl)cc2)C1 + CCN1CCN(Cc2ccc(Nc3ncc(F)c(-c4cc(F)c5nc(C)n(C(C)C)c5c4)n3)nc2)CC1
inactive: viability, T/C (second compound 0.01 µM, first compound 0.0316 µM) 90.6% | viability, T/C (second compound 0.01 µM, first compound 0.1 µM) 83.3% | viability, T/C (second compound 0.01 µM, first compound 0.316 µM) 79.3% | viability, T/C (second compound 0.01 µM, first compound 1 µM) 83.7% | viability, T/C (second compound 0.01 µM, first compound 3.16 µM) 75.1% | viability, T/C (second compound 0.01 µM, first compound 10 µM) 83.2% | viability, T/C (second compound 0.0316 µM, first compound 0.0316 µM) 93.3% | viability, T/C (second compound 0.0316 µM, first compound 0.1 µM) 86.7% | viability, T/C (second compound 0.0316 µM, first compound 0.316 µM) 86.4% | viability, T/C (second compound 0.0316 µM, first compound 1 µM) 78.5% | viability, T/C (second compound 0.0316 µM, first compound 3.16 µM) 83.3% | viability, T/C (second compound 0.0316 µM, first compound 10 µM) 82.9% | viability, T/C [6] 86.5% | viability, T/C [7] 79% | viability, T/C [8] 85% | viability, T/C [9] 80% | viability, T/C [10] 86.4% | viability, T/C [11] 89.5% | viability, T/C [12] 85% | viability, T/C [13] 90.7% | viability, T/C [14] 81.7% | viability, T/C [15] 86.8% | viability, T/C [16] 90.8% | viability, T/C [17] 106% | viability, T/C [18] 88.4% | viability, T/C [19] 86.3% | viability, T/C [20] 75.1% | viability, T/C [21] 81% | viability, T/C [22] 83.7% | viability, T/C [23] 109%
> 10000 nM: IC50 (curve of first compound, second compound 0.01 µM) | IC50 (curve of first compound, second compound 0.0316 µM) | IC50 [1] | IC50 [2] | IC50 [3]

COc1c(OCCCN2CCOCC2)ccc2c3n(c(=NC(=O)c4cnc(N)nc4)nc12)CCN3 + CC(C)NCC(C(=O)N1CCN(c2ncnc3c2C(C)CC3O)CC1)c1ccc(Cl)cc1
inactive: viability, T/C (second compound 0.1 µM, first compound 0.00316 µM) 81.3% | viability, T/C (second compound 0.1 µM, first compound 0.01 µM) 74.2% | viability, T/C [6] 58.3% | viability, T/C [7] 32.5% | viability, T/C [8] 19.8% | viability, T/C (second compound 0.316 µM, first compound 0.00316 µM) 74.7% | viability, T/C (second compound 0.316 µM, first compound 0.01 µM) 63% | viability, T/C [12] 49.4% | viability, T/C [13] 28.9% | viability, T/C [14] 16.7% | viability, T/C (second compound 1 µM, first compound 0.00316 µM) 59.3% | viability, T/C (second compound 1 µM, first compound 0.01 µM) 53% | viability, T/C [18] 39.3% | viability, T/C [19] 25.6% | viability, T/C [20] 13.9% | viability, T/C (second compound 3.16 µM, first compound 0.00316 µM) 46.8% | viability, T/C (second compound 3.16 µM, first compound 0.01 µM) 41.7% | viability, T/C [24] 33.9% | viability, T/C [25] 21.5% | viability, T/C [26] 13.9% | viability, T/C (second compound 10 µM, first compound 0.00316 µM) 35.6% | viability, T/C (second compound 10 µM, first compound 0.01 µM) 31.9% | viability, T/C [28] 24.8% | viability, T/C [29] 16.3%
active: viability, T/C [9] 3.52% | viability, T/C [15] 2.34% | viability, T/C [21] 1.91% | viability, T/C [27] 1.61% | viability, T/C [30] 6.62% | viability, T/C [31] 1.13%
27.3 nM: IC50 [2]
< 3.16 nM: IC50 [4] | IC50 [5]
11.8 nM: IC50 [3]
46.5 nM: IC50 [1]

CC1(C)CCC(CN2CCN(c3ccc(C(=O)NS(=O)(=O)c4ccc(NCC5CCOCC5)c([N+](=O)[O-])c4)c(Oc4cnc5[nH]ccc5c4)c3)CC2)=C(c2ccc(Cl)cc2)C1
inactive: viability, T/C (compound 0.0316 µM) 86% and 96.1% | viability, T/C (compound 0.1 µM) 83.1% and 79.8% | viability, T/C (compound 0.316 µM) 74.2% and 75.6% | viability, T/C (compound 1 µM) 80.1% and 87.6% | viability, T/C (compound 3.16 µM) 97% and 94.6% | viability, T/C (compound 10 µM) 78% and 68.1%
> 10000 nM: IC50 (curve of compound)

CCCS(=O)(=O)Nc1ccc(F)c(C(=O)c2c[nH]c3ncc(-c4ccc(Cl)cc4)cc23)c1F
inactive: viability, T/C (compound 0.0316 µM) 96.5% and 102% | viability, T/C (compound 0.1 µM) 89.8% and 97.6% | viability, T/C (compound 0.316 µM) 101% and 98.8% | viability, T/C (compound 1 µM) 92.3% and 99% | viability, T/C (compound 3.16 µM) 115% and 116% | viability, T/C (compound 10 µM) 97.3% and 81.5%
> 10000 nM: IC50 (curve of compound)

— PubChem BioAssay AID2060343 (Molecular Pharmacology Branch, DTP, NCI, 2025)
